# Key:
# [1] = target: T1, eEF1A1 (recombinant human eEF1A1) (Homo sapiens, UniProt P68104); experiment: isothermal titration calorimetry (MicroCal PEAQ-ITC); format: binding
# T1 sequence (P68104 1-462): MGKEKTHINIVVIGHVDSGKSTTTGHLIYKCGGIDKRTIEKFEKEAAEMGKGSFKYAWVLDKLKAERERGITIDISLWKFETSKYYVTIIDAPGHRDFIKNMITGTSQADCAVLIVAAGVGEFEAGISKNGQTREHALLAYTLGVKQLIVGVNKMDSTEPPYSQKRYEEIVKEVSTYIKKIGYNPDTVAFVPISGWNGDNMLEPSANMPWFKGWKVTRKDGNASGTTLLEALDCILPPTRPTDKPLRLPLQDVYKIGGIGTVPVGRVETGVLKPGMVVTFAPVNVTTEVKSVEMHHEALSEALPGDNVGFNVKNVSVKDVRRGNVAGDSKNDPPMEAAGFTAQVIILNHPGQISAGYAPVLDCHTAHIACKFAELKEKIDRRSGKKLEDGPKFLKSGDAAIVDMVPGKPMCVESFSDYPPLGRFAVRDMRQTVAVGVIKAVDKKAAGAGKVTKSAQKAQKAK
# Excerpt: isothermal titration calorimetry (MicroCal PEAQ-ITC) on eEF1A1 (recombinant human eEF1A1) | ITC assay confirmed the affinity of Nef to eEF1A1 with the affinity constant of […]
# [2] = target: T2, eEF1A1 (RAW264.7 macrophages) (Mus musculus, UniProt P10126); experiment: CETSA and DARTS with Western blot; competition of probe pull-down; format: biochemical; conditions: RAW264.7 lysate or cells; Nef 200 µM (CETSA methods) or 10 µM (figure legend); DARTS 2.5-10 µM with pronase
# T2 construct: endogenous protein in RAW264.7 cells or lysate, about 50 kDa band, identified by LC-MS/MS and Western blot
# T2 sequence (P10126 2-462): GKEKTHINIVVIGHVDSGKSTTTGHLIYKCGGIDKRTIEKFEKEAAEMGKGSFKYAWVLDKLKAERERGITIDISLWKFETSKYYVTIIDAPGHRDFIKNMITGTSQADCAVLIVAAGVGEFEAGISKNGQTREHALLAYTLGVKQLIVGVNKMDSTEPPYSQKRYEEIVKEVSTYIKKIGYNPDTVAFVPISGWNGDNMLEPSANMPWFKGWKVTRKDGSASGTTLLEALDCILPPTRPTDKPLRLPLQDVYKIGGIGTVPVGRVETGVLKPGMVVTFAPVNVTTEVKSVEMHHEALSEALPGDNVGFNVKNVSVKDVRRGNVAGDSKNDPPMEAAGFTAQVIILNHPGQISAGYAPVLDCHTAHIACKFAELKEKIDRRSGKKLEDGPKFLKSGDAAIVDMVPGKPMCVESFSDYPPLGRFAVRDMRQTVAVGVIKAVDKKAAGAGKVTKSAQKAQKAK
smiles,measurement,setting,value
COc1ccc(C[C@@H]2c3cc(Oc4cc(C[C@@H]5c6cc(OC)c(OC)cc6CCN5C)ccc4O)c(OC)cc3CCN2C)cc1 [neferine],Kd,[1],4.83 µM
same,CETSA and DARTS with Western blot; competition of probe pull-down,[2],Nef administration protected the eEF1A1 protein from temperature‐dependent degradation in cell lysis
